Source: the supplement of paper PMC10331698
± gives the standard deviation of the averaged measurements.

What was measured:
Experiment in all cases: level (log10 ratio to DMSO vehicle control); higher = higher biomarker level / cell amount than vehicle control
Conditions in all cases: in DMSO
[1] = compound: O=C(O)C(F)(F)C(F)(F)C(F)(F)OC(F)(C(F)(F)F)C(F)(F)F [Perfluoro-4-isopropoxybutanoic acid]
Protocol: (§1)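 BioMAP Diversity Plus panel of 12 human primary cell co-culture systems (3C, 4H, LPS, SAg, BT, BF4T, BE3C, CASM3C, HDF3CGF, KF3CT, MyoF, Mphg). Compounds were added 1 h before stimulation and left for 24 h (MyoF 48 h; BT 72 h for soluble read-outs or 6 d for IgG). Biomarkers were read by ELISA, cytotoxicity by SRB, PBMC viability and proliferation by Alamar Blue. Each well value was divided by the mean of 8 DMSO control wells on the same plate and log10 transformed; duplicate blinded samples were tested at 4 concentrations.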

[2] = compound: COC(=O)CCC(F)(F)C(F)(F)C(F)(F)C(F)(F)F [Methyl 2H,2H,3H,3H-perfluoroheptanoate]
Protocol: as §1

[3] = compound: FC(F)(F)C(F)(F)C(F)(F)C(F)(F)C(F)(F)C(F)(F)C(F)(F)C(F)(F)CCS [2-(Perfluorooctyl)ethanthiol]
Protocol: as §1

[4] = compound: OCCC(F)(F)C(F)(F)C(F)(F)C(F)(F)C(F)(F)C(F)(F)F [6:2 Fluorotelomer alcohol]
Protocol: as §1

[5] = compound: O=C(O)C(F)(F)C(F)(F)OC(F)(F)F [Perfluoro-3-methoxypropanoic acid]
Protocol: as §1

Perfluorobutanoic acid = compound: O=C(O)C(F)(F)C(F)(F)C(F)(F)F [Perfluorobutanoic acid]
Protocol: as §1

[6] = compound: NCC(F)(F)C(F)(F)C(F)(F)C(F)(F)C(F)(F)C(F)(F)C(F)(F)F [1H,1H-Perfluorooctylamine]
Protocol: as §1

| Test System | level (log10) ([1]; 6700 nM) | level (log10) ([1]; 20000 nM) | level (log10) ([1]; 60000 nM) | level (log10) ([2]; 6700 nM) | level (log10) ([2]; 20000 nM) | level (log10) ([2]; 60000 nM) | level (log10) ([3]; 6700 nM) | level (log10) ([3]; 20000 nM) | level (log10) ([4]; 6700 nM) | level (log10) ([4]; 20000 nM) | level (log10) ([5]; 6700 nM) | level (log10) ([5]; 20000 nM) | level (log10) ([5]; 60000 nM) | level (log10) (Perfluorobutanoic acid; 6700 nM) | level (log10) (Perfluorobutanoic acid; 20000 nM) | level (log10) (Perfluorobutanoic acid; 60000 nM) | level (log10) ([6]; 6700 nM) | level (log10) ([6]; 20000 nM) | level (log10) ([6]; 60000 nM) |
| --- | --- | --- | --- | --- | --- | --- | --- | --- | --- | --- | --- | --- | --- | --- | --- | --- | --- | --- | --- |
| BF4T:CD54/ICAM-1 | -0.0095 ± 0.021 | -0.007 ± 0.0057 | -0.0115 ± 0.013 | -0.025 ± 0.034 | -0.0195 ± 0.019 | -0.026 ± 0.027 | 0.0025 ± 0.005 | -0.003 ± 0.0014 | -0.004 ± 0.0014 | -0.0025 ± 0.011 | 0.0165 ± 0.0064 | -0.0085 ± 0.011 | -0.0015 ± 0.0035 | 0.007 ± 0.0057 | -0.002 ± 0.0071 | -0.002 ± 0.018 | 0.0025 ± 0.0021 | -0.0045 ± 0.00071 | 0.0075 ± 0.0021 |
| SAg:SRB | -0.001 ± 0.018 | -0.0085 ± 0.016 | -0.018 ± 0.0085 | 0.008 ± 0.027 | 0.0005 ± 0.0064 | -0.0085 ± 0.0092 | 0.002 ± 0.0014 | -0.004 ± 0.0014 | -0.003 ± 0.027 | 0 ± 0.02 | -0.0025 ± 0.0078 | -0.0005 ± 0.0021 | -0.0045 ± 0.0064 | -0.013 ± 0.03 | -0.005 ± 0.02 | -0.0075 ± 0.011 | 0.0005 ± 0.0035 | -0.002 ± 0.014 | -0.001 ± 0.027 |
| LPS:CXCL8/IL-8 | 0.0515 ± 0.0021 | 0.0935 ± 0.035 | 0.134 ± 0.018 | -0.0075 ± 0.023 | -0.016 ± 0.0071 | 0.022 ± 0.016 | -0.0195 ± 0.035 | 0.0235 ± 0.053 | 0.071 ± 0.038 | 0.039 ± 0.023 | 0.0285 ± 0.035 | 0.018 ± 0.017 | 0.027 ± 0.0014 | -0.0055 ± 0.005 | -0.0165 ± 0.00071 | 0.0095 ± 0.011 | -0.0315 ± 0.011 | -0.0265 ± 0.0035 | -0.0105 ± 0.033 |
| 4H:CD62P/P-selectin | 0.001 ± 0.021 | 0.0165 ± 0.012 | 0.048 ± 0.033 | -0.0325 ± 0.071 | -0.017 ± 0.064 | 0.0135 ± 0.053 | 0.019 ± 0.0071 | -0.017 | 0.0165 ± 0.012 | -0.004 ± 0.02 | -0.004 ± 0.0057 | 0.005 ± 0.011 | 0.0065 ± 0.029 | 0.086 ± 0.076 | 0.0575 ± 0.0035 | 0.09 ± 0.054 | 0.0025 ± 0.019 | -0.028 ± 0.021 | -0.0525 ± 0.047 |
| BF4T:MMP-3 | -0.0095 ± 0.013 | -0.0015 ± 0.029 | 0.042 ± 0.1 | -0.0135 ± 0.015 | -0.021 ± 0.03 | -0.0185 ± 0.0035 | -0.0515 ± 0.0035 | -0.0285 ± 0.015 | -0.004 ± 0.0042 | -0.0055 ± 0.0035 | -0.001 ± 0.024 | 0.0105 ± 0.0035 | 0.043 ± 0.016 | 0.0005 ± 0.035 | 0.0045 ± 0.015 | 0.006 ± 0.033 | -0.0075 ± 0.042 | -0.0185 ± 0.044 | 0.0095 ± 0.0078 |
| 3C:CD87/uPAR | -0.001 ± 0.04 | -0.009 ± 0.041 | -0.023 ± 0.033 | -0.028 ± 0.047 | -0.022 ± 0.072 | 0.0015 ± 0.077 | -0.0175 ± 0.0021 | -0.0215 ± 0.0035 | -0.0205 ± 0.059 | -0.0095 ± 0.042 | -0.016 ± 0.05 | -0.021 ± 0.013 | 0.021 ± 0.021 | 0.0005 ± 0.005 | 0.0105 ± 0.015 | -0.0065 ± 0.011 | -0.009 ± 0.023 | -0.017 ± 0.025 | -0.006 ± 0.0057 |
| BF4T:tPA | -0.036 ± 0.017 | -0.015 ± 0.016 | 0.0145 ± 0.057 | -0.019 ± 0.0085 | -0.023 ± 0.0014 | -0.0145 ± 0.013 | 0.006 ± 0.034 | -0.0195 ± 0.022 | -0.0215 ± 0.032 | -0.0135 ± 0.021 | 0.0015 ± 0.037 | 0.0035 ± 0.018 | 0.019 ± 0.04 | 0.0025 ± 0.005 | 0.0105 ± 0.011 | 0.011 ± 0.013 | -0.017 ± 0.023 | -0.027 ± 0.021 | 0.003 ± 0.014 |
| BF4T:IL-1alpha | -0.008 ± 0.018 | -0.0245 ± 0.015 | -0.012 ± 0.023 | -0.0085 ± 0.00071 | -0.0185 ± 0.018 | 0 ± 0.021 | -0.036 ± 0.018 | -0.023 ± 0.017 | -0.002 ± 0.0014 | -0.0125 ± 0.021 | -0.0055 ± 0.03 | -0.021 ± 0.0042 | 0.004 ± 0.045 | -0.0025 ± 0.029 | 0.0085 ± 0.0064 | 0.013 ± 0.014 | 0.001 ± 0.0057 | -0.0175 ± 0.0035 | 0.0065 ± 0.013 |
| BE3C:CXCL10/IP-10 | 0.003 ± 0.0014 | 0.0135 ± 0.00071 | 0.0155 ± 0.015 | -0.001 ± 0.013 | -0.004 ± 0.0057 | -0.006 ± 0.0099 | 0.0405 ± 0.05 | 0.016 ± 0.058 | -0.0035 ± 0.005 | 0.006 ± 0.0028 | 0.0025 ± 0.005 | -0.0095 ± 0.0035 | 0.0025 ± 0.011 | 0.0065 ± 0.00071 | -0.001 ± 0.011 | 0.0085 ± 0.0078 | 0.004 ± 0.0014 | -0.0025 ± 0.0035 | 0.002 ± 0.0085 |
| 4H:VEGFR2 | -0.0575 ± 0.015 | -0.056 ± 0.037 | -0.0215 ± 0.088 | 0.0325 ± 0.013 | 0.0435 ± 0.03 | 0.0495 ± 0.069 | -0.0145 ± 0.026 | 0.0405 ± 0.074 | -0.058 ± 0.024 | -0.072 ± 0.078 | -0.085 ± 0.041 | -0.0895 ± 0.05 | -0.009 ± 0.093 | -0.025 ± 0.021 | -0.0105 ± 0.005 | 0.004 ± 0.013 | 0.0225 ± 0.015 | -0.012 ± 0.0042 | -0.017 ± 0.0085 |
| BE3C:CD87/uPAR | -0.016 ± 0.033 | 0.001 ± 0.031 | 0.0275 ± 0.035 | -0.003 ± 0.0014 | -0.0005 ± 0.00071 | -0.0185 ± 0.022 | 0.009 ± 0.014 | 0.027 ± 0.0042 | 0.005 ± 0.031 | -0.0155 ± 0.012 | -0.0225 ± 0.0092 | -0.012 ± 0.013 | 0.002 ± 0.041 | -0.012 ± 0.0099 | 0.0015 ± 0.013 | -0.015 ± 0.013 | 0.0025 ± 0.0021 | -0.0035 ± 0.012 | 0.008 ± 0.0099 |
| LPS:CD40 | 0.012 ± 0.041 | -0.011 ± 0.018 | -0.0405 ± 0.023 | -0.017 ± 0.041 | 0.003 ± 0.051 | -0.015 ± 0.078 | -0.034 ± 0.055 | -0.0305 ± 0.11 | -0.0015 ± 0.03 | -0.0315 ± 0.015 | 0.0045 ± 0.013 | 0.0095 ± 0.015 | 0.0135 ± 0.039 | 0.0245 ± 0.061 | 0 ± 0.03 | -0.0095 ± 0.022 | -0.0195 ± 0.019 | -0.0095 ± 0.023 | -0.022 ± 0.04 |
| BE3C:CXCL9/MIG | 0.001 ± 0.0028 | 0.012 ± 0.0071 | 0.014 ± 0.017 | -0.0025 ± 0.016 | -0.007 ± 0.0014 | -0.0095 ± 0.00071 | -0.0085 ± 0.011 | -0.001 ± 0.011 | 0.01 ± 0.0057 | 0.001 ± 0.0057 | 0.005 ± 0.0014 | 0.0095 ± 0.018 | 0.0105 ± 0.0021 | 0.002 ± 0.0071 | -0.004 ± 0.013 | -0.0005 ± 0.00071 | -0.0095 ± 0.011 | 0.0035 ± 0.022 | 0.0005 ± 0.0021 |
| SAg:PBMC Cytotoxicity | 0.0225 ± 0.026 | 0.0245 ± 0.028 | 0.0425 ± 0.022 | 0.033 ± 0.021 | 0.029 ± 0.058 | 0.029 ± 0.057 | -0.025 ± 0.023 | -0.0015 ± 0.0035 | 0.0025 ± 0.005 | 0.023 ± 0.028 | 0.034 ± 0.014 | 0.016 ± 0.013 | -0.0115 ± 0.011 | -0.0155 ± 0.00071 | -0.013 ± 0.037 | -0.009 ± 0.057 | 0.032 ± 0.025 | 0.018 ± 0.013 | -0.129 ± 0.27 |
| 3C:CXCL9/MIG | -0.0015 ± 0.0078 | -0.0085 ± 0.0021 | 0.0105 ± 0.0035 | -0.011 ± 0.011 | -0.0115 ± 0.012 | -0.0055 ± 0.015 | 0.002 | 0.0115 ± 0.005 | 0.0045 ± 0.005 | -0.0145 ± 0.0035 | 0.0025 ± 0.0021 | -0.0065 ± 0.0078 | 0.0115 ± 0.00071 | -0.003 ± 0.0042 | -0.0015 ± 0.011 | 0.0085 ± 0.0078 | 0.0025 ± 0.0021 | -0.021 ± 0.0042 | -0.0205 ± 0.005 |
| SAg:CXCL8/IL-8 | 0.009 ± 0.037 | 0.02 ± 0.02 | 0.071 ± 0.023 | -0.007 ± 0.05 | -0.0085 ± 0.026 | 0.0165 ± 0.033 | -0.0215 ± 0.032 | 0.027 ± 0.082 | -0.0035 ± 0.011 | 0.0035 ± 0.0021 | 0.021 ± 0.0028 | -0.017 ± 0.034 | 0.0095 ± 0.04 | -0.0025 ± 0.0092 | -0.005 ± 0.0085 | 0.0335 ± 0.028 | 0.058 ± 0.076 | -0.0255 ± 0.011 | 0.0065 ± 0.061 |
